Test results as given in US11510928B2, “Use of mirtazapine in the treatment of inflammatory disorders, autoimmune disease and PBC” (UTI Limited Partnership, priority 2017, dated 2022).
Where “and” joins values, the source holds several entries; their conditions need not be identical. Identical values can stand only once.

Experiments:
PBC patients [1] = assay: THIN database cohort study of PBC patients: decompensation, liver transplant and mortality free survival by drug usage; assay type: in vivo, human
Excerpt: We conducted a cohort study using The Health Improvement Network (THIN). THIN is one of the largest medical databases in the UK^8, consisting of prospectively gathered electronic medical records from over 11.1 million patients^8. […] Data from participant general practitioners across the UK is exported to the THIN administrators and database, which is updated every 3 months^11. The THIN database records demographic data and clinical events using Read codes, prescription medications, and laboratory values^12.
We identified patients with PBC Read code “J6160” from April 1974 until May 2007. This cohort was followed until May 2012. We excluded patients having overlap syndrome with autoimmune hepatitis or primary sclerosing cholangitis. The first code of PBC identified in the THIN database was considered the index (ie. diagnosis) date. FIG. 10 provides a flow diagram illustrating the selection of the study population. The primary outcome was the first occurrence of one of the three events following the diagnosis of PBC: (1) decompensation of cirrhosis (ascites, spontaneous bacterial peritonitis, hepatic encephalopathy, hepatorenal syndrome, variceal bleeding, jaundice, or hepatocellular carcinoma); (2) liver transplantation; or (3) death.
Read codes were used to identify patients with chronic depression disorder. Chronic depression was defined as follows: (1) never diagnosed with chronic depression; (2) past depression diagnosis prior to 90 days from PBC diagnosis; and (3) current depression diagnosis if a diagnosis was made within 90 days before or after a PBC diagnosis. Using THIN database therapy files, we assessed the impact of anti-depressant medications on outcomes of PBC patients (mortality, decompensation, and liver transplant).
For each anti-depressant medication, use was defined as follows: (1) never used the medication; (2) past use as defined as a previous code for medication use prior to 90 days of PBC diagnosis; and (3) current medication user if the medication code was identified within 90 days before or after a PBC diagnosis. We assessed the effect of each anti-depressant medication on study outcomes separately. Antidepressants were classified as typical or atypical and stratified accordingly. Atypical antidepressants include: Agomelatine, Bupropion and Mirtazapine. While typical antidepressants include the following groups: (a) Selective Serotonin Reuptake Inhibitors (SSRI): Citalopram, Escitalopram, Fluoxetine, Fluvoxamine, Paroxetine and Sertraline; (b) […] (SNRI): Desvenlafaxine, Duloxetine, Minacipran and Venlafaxine; (c) Serotonin modulators: Nefazodone, Trazodone and Vilazodone; (d) Tricyclics and tetracyclics: Amitriptyline, Amoxapine, Clomipramine, Desipramine, Doxepin, Imipramine, Maprotiline, Nortriptyline and Protriptyline, Trimiprramine; (e) Monamine oxidase inhibitors: Isocarboxazid, Phenelzine, Selegiline and Tranylcypromine.
We assessed age at diagnosis of PBC, sex, and the presence of coexisting liver disease (ie. chronic hepatitis either viral, alcoholic, or fatty liver disease; yes/no). Smoking status was classified (current, former, never smoked, or unknown status) at the time of PBC diagnosis, alcohol consumption was classified (current, former, never consumed alcohol, or unknown status) at PBC diagnosis. Ursodeoxycholic acid (UDCA) usage (ever/never recorded) was also determined.
In our primary analysis, we assessed demographic, clinical, and medication variables in the PBC cohort according to depression status. Where appropriate, we used the Fisher Exact test or Chi-Square test for categorical data, and the Kruskal-Wallis or Student's t-test for continuous data. Univariate analysis using Log Rank test and multivariate Cox Proportional Regression models were used to assess the impact of depression or anti-depressant medications on PBC outcomes as defined by death, decompensated cirrhosis, or liver transplant. […]

PBC patients [2] = conditions: human, in vivo; listed as UDCA; cited from earlier work
[3] = URSO usage (ever/never recorded)

Structure (SMILES) | Univariate HR, 10-year decompensation, liver transplant and mortality free survival (PBC patients [1]; current usage vs none) | Univariate HR, 10-year decompensation, liver transplant and mortality free survival (PBC patients [1]; usage prior to PBC diagnosis vs none) | Multivariate model-1 HR (PBC patients [1]; [3]) | Multivariate model-2 HR (PBC patients [1]; [3]) | Univariate HR, 10-year decompensation, liver transplant and mortality free survival (PBC patients [1]; [3]) | Patients with PBC who do not fully respond to treatment (PBC patients [2])
CNCCC(Oc1ccc(C(F)(F)F)cc1)c1ccccc1 (stereo not drawn) [Fluoxetine] | 0.58 | 0.83 |  |  |  | 
C[C@H](CCC(=O)O)[C@H]1CC[C@H]2[C@@H]3[C@@H](O)C[C@@H]4C[C@H](O)CC[C@]4(C)[C@H]3CC[C@]12C [URSO, ursodeoxycholic acid] |  |  | 1.00 | 1.00 | 0.80 | 30% to 40% and 30-40%
